Assay results: patent US9505728B2, “Triazolone compounds and uses thereof” (INCEPTION 2, INC., priority 2012, dated 2016)
Where two headings read alike, the source gives them in different places.

What was measured:
Human PPARα = molecular target: T1, Human PPARα (Homo sapiens, UniProt Q07869); experiment: Human PPARα Reporter Assay (luciferase); assay type: cell-based
T1 construct: host or cells: proprietary non-human mammalian cells
T1 sequence (Q07869 1-468): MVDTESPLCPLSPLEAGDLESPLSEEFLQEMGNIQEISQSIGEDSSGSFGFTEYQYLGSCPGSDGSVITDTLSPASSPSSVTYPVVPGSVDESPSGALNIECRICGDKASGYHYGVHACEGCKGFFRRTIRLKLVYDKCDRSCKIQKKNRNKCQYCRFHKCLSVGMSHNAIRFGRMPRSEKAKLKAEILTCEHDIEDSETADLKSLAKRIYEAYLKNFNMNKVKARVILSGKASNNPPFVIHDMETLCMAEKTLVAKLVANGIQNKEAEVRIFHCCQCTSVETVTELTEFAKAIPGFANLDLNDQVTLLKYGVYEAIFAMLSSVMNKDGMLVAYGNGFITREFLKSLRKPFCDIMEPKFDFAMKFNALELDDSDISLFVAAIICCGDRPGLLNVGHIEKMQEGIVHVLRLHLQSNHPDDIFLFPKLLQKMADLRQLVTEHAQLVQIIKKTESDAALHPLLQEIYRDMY
Method in brief: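 Non-human mammalian cells constitutively expressing human PPARα with a PPARα-responsive luciferase reporter were dosed with compounds right after plating. After overnight incubation, media removed and detection reagent added; luminescence taken as proportional to PPARα activation, agonist or antagonist mode.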

PPAR beta/delta = molecular target: T2, PPAR beta/delta (Homo sapiens, UniProt Q03181); experiment: Target selectivity counterscreen, PPAR β/δ reporter assay; assay type: cell-based; conditions: receptor agonist at ~EC80
T2 construct: host or cells: engineered reporter cells of the kit
T2 sequence (Q03181 1-441): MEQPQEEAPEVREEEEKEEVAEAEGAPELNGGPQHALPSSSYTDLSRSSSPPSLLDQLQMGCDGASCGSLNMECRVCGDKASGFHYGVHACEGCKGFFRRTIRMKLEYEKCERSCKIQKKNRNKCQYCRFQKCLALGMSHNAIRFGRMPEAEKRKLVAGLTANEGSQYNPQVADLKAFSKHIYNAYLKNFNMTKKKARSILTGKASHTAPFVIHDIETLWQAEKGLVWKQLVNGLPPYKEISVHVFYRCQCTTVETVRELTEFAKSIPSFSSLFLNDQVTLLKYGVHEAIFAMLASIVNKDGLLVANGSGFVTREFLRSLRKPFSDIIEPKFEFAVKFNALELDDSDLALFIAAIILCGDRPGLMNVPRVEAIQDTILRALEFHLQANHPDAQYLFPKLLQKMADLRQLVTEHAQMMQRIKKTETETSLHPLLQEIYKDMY
Description: (§1) Target Selectivity Assays
(§2) To determine species selectivity, a Mouse PPARα Reporter Assay System was used (Indigo Biosciences, Cat. #M00111). Activity of test compounds to antagonize or agonize other isoforms of human PPAR, for example β/δ and γ, were assessed using the corresponding kits from Indigo Biosciences (Cat. #IB00121 and #IB00101, respectively). In addition to PPAR activity, compounds were also screened for activity against other nuclear hormone receptors including Estrogen Receptor β, Glucocorticoid Receptor and Thyroid Receptor β using commercially available kits (Indigo Biosciences, Cat. #IB00411, IB00201 and IB01101, respectively). Each assay system from Indigo Biosciences uses technology analogous to the human PPARα kit, with the variance being that the cells used for each assay were engineered to over-express the receptor of interest. In addition, the appropriate receptor agonist (included with each kit) was used at ˜EC80 for assays in which antagonist potency was being assessed.

PPAR gamma = molecular target: T3, PPAR gamma (Homo sapiens, UniProt P37231); experiment: Target selectivity counterscreen, PPAR γ reporter assay; assay type: cell-based; conditions: receptor agonist at ~EC80
T3 construct: host or cells: engineered reporter cells of the kit
T3 sequence (P37231 1-505): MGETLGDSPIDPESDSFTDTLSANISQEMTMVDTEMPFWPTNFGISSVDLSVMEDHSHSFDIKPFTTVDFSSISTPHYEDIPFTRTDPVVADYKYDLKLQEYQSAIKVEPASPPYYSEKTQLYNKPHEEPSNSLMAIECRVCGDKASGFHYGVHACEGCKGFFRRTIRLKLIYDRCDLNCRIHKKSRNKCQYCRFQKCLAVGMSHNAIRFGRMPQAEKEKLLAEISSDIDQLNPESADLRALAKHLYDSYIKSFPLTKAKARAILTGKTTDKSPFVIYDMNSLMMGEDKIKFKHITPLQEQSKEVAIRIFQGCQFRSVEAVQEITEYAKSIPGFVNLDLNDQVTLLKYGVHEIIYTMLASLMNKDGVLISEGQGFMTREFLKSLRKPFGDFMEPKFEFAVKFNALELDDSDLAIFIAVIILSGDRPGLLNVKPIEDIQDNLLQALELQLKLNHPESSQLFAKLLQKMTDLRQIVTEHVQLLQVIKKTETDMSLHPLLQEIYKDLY
Description: as §1, §2

Estrogen Receptor β = molecular target: T4, Estrogen Receptor β (Homo sapiens, UniProt Q92731); experiment: Target selectivity counterscreen, Estrogen Receptor β reporter assay; assay type: cell-based; conditions: receptor agonist at ~EC80
T4 construct: host or cells: engineered reporter cells of the kit
Description: as §1, §2

B16F10 melanoma cells = experiment: In vivo cancer model: B16F10 model of pulmonary metastasis; parameters: species or system C57BL6 mice; conditions: intraperitoneal doses at 0.3, 3 and 30 mg/kg, daily, day 21, FIG. 1
Description: In Vivo Cancer Model: B16F10 Model of Pulmonary Metastasis
B16F10 cells were cultured in standard growth media, harvested when approximately 50% confluent and injected into C57BL6 mice via the tail vein (50,000 cells per mouse in 200 μL). Mice were then treated daily with test compound. On day 21, mice were euthanized. Lungs were harvested and placed into Fekete's solution overnight to facilitate visualization of the tumors. Black nodules were enumerated.
Statistics were performed by ANOVA with Dunnett's Multiple Comparison Test post-hoc to determine statistical differences from vehicle treatment group (* denotes P<0.05 while *** denotes P<0.001).

T4 sequence (Q92731 whole entry): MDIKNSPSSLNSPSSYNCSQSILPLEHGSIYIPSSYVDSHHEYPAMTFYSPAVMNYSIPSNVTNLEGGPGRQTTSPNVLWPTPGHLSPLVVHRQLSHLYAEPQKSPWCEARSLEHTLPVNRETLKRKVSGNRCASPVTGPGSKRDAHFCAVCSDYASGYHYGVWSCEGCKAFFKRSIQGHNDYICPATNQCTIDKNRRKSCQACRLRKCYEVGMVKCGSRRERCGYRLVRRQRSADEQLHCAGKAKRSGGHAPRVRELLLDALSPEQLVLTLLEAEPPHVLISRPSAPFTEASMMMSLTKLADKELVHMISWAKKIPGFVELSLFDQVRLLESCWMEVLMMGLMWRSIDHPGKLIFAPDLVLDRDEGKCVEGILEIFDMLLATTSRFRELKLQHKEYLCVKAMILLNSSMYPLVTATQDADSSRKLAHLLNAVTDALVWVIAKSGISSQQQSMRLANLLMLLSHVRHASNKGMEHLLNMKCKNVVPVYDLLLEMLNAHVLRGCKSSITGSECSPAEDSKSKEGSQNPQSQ

IC50 (Human PPARα; counterscreen table, antagonist potency, read-out: PPAR alpha IC50): 0.067 µM
IC50 (Human PPARα; human PPARα reporter cells, overnight incubation, antagonism, read-out: Luciferase IC50): 0.067 µM
IC50 (PPAR beta/delta): 2.6 µM
IC50 (PPAR gamma): 2.9 µM
IC50 (Estrogen Receptor β): 11.4 µM
Compound: CCn1c(CCCc2ccc(-c3ccc(NS(=O)(=O)c4ccccc4)cn3)cc2)nn(Cc2ccc(C(C)(C)C)cc2)c1=O [Example 10, N-(6-(4-(3-(1-(4-(tert-Butyl)benzyl)-4-ethyl-5-oxo-4,5-dihydro-1H-1,2,4-triazol-3-yl)propyl)phenyl)pyridin-3-yl)benzenesulfonamide]
metastasis of B16F10 melanoma cells to the lung (black nodules enumerated) (B16F10 melanoma cells): inhibition of metastasis
